Measured values reported in BindingDB's records for doi:10.1073/pnas.89.8.3630 (Synaptic Pharmaceutical, 1992).

Key:
[1] = biological target: 5-hydroxytryptamine receptor 1D (Homo sapiens, UniProt P28221)
[2] = biological target: 5-hydroxytryptamine receptor 1B (Homo sapiens, UniProt P28222)
Sequence of 5-hydroxytryptamine receptor 1B (P28222 whole entry): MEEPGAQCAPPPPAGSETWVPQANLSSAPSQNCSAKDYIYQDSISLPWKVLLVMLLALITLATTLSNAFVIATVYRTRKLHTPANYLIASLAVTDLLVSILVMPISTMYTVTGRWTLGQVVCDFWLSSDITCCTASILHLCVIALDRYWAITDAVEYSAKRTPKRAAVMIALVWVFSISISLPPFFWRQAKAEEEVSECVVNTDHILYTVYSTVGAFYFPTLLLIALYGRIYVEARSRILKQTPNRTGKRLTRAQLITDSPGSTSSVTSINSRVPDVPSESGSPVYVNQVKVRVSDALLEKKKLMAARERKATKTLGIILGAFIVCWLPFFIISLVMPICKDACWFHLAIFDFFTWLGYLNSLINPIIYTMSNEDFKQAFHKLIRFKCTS

Sequence of 5-hydroxytryptamine receptor 1D (P28221 whole entry): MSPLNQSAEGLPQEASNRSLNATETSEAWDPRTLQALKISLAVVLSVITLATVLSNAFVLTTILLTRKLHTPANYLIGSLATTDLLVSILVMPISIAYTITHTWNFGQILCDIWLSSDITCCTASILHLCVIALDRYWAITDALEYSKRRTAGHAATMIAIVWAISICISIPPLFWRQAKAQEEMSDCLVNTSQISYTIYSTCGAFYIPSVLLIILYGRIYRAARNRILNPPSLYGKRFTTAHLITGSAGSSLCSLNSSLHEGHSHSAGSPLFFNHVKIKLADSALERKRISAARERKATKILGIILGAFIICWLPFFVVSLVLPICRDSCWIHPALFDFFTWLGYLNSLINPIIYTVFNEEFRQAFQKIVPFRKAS

SMILES: c1ccc2c(N3CCNCC3)cccc2c1
- Ki [1]: 12 nM

SMILES: c1ccc2nc(N3CCNCC3)ccc2c1 [2-Piperazin-1-yl-quinoline (Quipazine)]
- Ki [1]: 1000 nM
- Ki [2]: 1000 nM

SMILES: CC[C@@H](CO)NC(=O)[C@@H]1C=C2c3cccc4c3c(cn4C)C[C@H]2N(C)C1
- Ki [1]: 25 nM
- Ki [2]: 3.6 nM

SMILES: Cc1[nH]c2ccc(O)cc2c1CCN
- Ki [1]: 860 nM
- Ki [2]: 915 nM

SMILES: CN1C[C@H](CO)C=C2c3cccc4[nH]cc(c34)C[C@H]21
- Ki [1]: 1.19 nM
- Ki [2]: 0.63 nM

SMILES: CC(C)NCC(O)COc1cccc2[nH]ccc12 (centres undefined) [LB-46]
- Ki [1]: 4900 nM
- Ki [2]: 4100 nM

SMILES: CCCN(CCC)CCc1c[nH]c2ccc(C(N)=O)cc12 [NN-DIPROP-5-CT]
- Ki [1]: 42 nM
- Ki [2]: 13 nM

SMILES: O=C(CCCN1CCC2(CC1)C(=O)NCN2c1ccccc1)c1ccc(F)cc1 [8-[4-(4-fluorophenyl)-4-oxidanylidene-butyl]-1-phenyl-1,3,8-triazaspiro[4.5]decan-4-one]
- Ki [1]: > 10000 nM
- Ki [2]: 995 nM

SMILES: COc1cc(N)c(Cl)cc1C(=O)NC1CN2CCC1CC2 (centres undefined) [ZACOPRIDE,R]
- Ki [1]: > 10000 nM
- Ki [2]: > 10000 nM

SMILES: Clc1cccc(N2CCNCC2)c1 [mCPP]
- Ki [1]: 361 nM
- Ki [2]: 216 nM
